Here are results for 29 compounds from PubChem BioAssay AID651880 (NMMLSC, 2012).

Structures are written as SMILES. Calls of active or inactive are those of the source. No rule for the calls is given here.

The target in the test is Botulinum neurotoxin type F light chain protease (Clostridium botulinum). The test is described as follows: Botulinum neurotoxin F protease inhibition, flow cytometry cleavage assay, confirmatory dose response (AID 651880). The conditions noted are these: multiplex microsphere flow cytometry protease cleavage assay. (Flow cytometry measures light scatter and fluorescence of single cells or particles in a stream.)
As usually defined, the EC50 is the concentration giving half of the maximal effect. Consider `CSc1ccc(C2=NN(c3ccc(C(=O)N4CCOCC4)cc3)C(c3ccccc3)C2)cc1` (centres undefined), for which the EC50 was > 20 µM (inactive).

As for `CSc1ccc(C2=NN(c3ccc(C(=O)N4CCCCC4)cc3)C(c3ccccc3)C2)cc1` (centres undefined), the EC50 is > 20 µM (inactive).

Regarding `c1ccc(C2=NN(c3ccccc3)C(c3ccccc3)C2)cc1` (centres undefined), the EC50 is > 20 µM (inactive).

`CNC(=O)c1ccc(N2N=C(c3ccccc3)CC2c2ccccc2)cc1` (centres undefined): the EC50 is > 20 µM (inactive).

For the compound `CS(=O)(=O)c1ccc(N2N=C(c3cccnc3)CC2c2ccccc2)cc1` (centres undefined), the EC50 is > 20 µM (inactive).

As for `COc1ccc(N2N=C(c3ccc(SC)cc3)CC2c2ccccc2)cc1` (centres undefined), the EC50 was > 20 µM (inactive).

On to `CSc1ccc(C2=NN(c3ccc(S(N)(=O)=O)cc3)C(c3ccccc3)C2)cc1` (centres undefined), for which the EC50 is > 20 µM (inactive).

For the compound `CSc1ccc(C2=NN(c3ccc(S(C)(=O)=O)cc3)C(c3ccccc3)C2)cc1` (centres undefined), the EC50 was > 20 µM (inactive).

On to `CS(=O)(=O)c1ccc(N2N=C(c3ccncc3)CC2c2ccccc2)cc1` (centres undefined), for which the EC50 was > 20 µM (inactive).

Take `CC(C)NC(=O)c1ccc(N2N=C(c3ccccc3)CC2c2ccccc2)cc1` (centres undefined): the EC50 was > 20 µM (inactive).

Consider `c1ccc(-c2cc(-c3ccccc3)n(-c3ccccc3)n2)cc1`, for which the EC50 was > 20 µM (inactive).

`c1ccc(C2CC(c3cccnc3)=NN2c2ccccc2)cc1` (centres undefined): the EC50 is > 20 µM (inactive).

Take `CC(C)CNC(=O)c1ccc(N2N=C(c3ccccc3)CC2c2ccccc2)cc1` (centres undefined): the EC50 is > 20 µM (inactive).

As to `c1ccc(C2CC(c3ccccn3)=NN2c2ccccc2)cc1` (centres undefined), the EC50 was > 20 µM (inactive).

Regarding `COc1ccc(N2N=C(c3ccccc3)CC2c2ccccc2)cc1` (centres undefined), the EC50 is > 20 µM (inactive).

As for `CSc1ccc(C2=NN(c3ccc([N+](=O)[O-])cc3)C(c3ccccc3)C2)cc1` (centres undefined), the EC50 was 0.05 µM.

For `CS(=O)(=O)c1ccc(N2N=C(c3ccccc3)CC2c2ccccc2)cc1` (centres undefined), the EC50 is > 20 µM (inactive).

Regarding `NS(=O)(=O)c1ccc(N2N=C(c3cccnc3)CC2c2ccccc2)cc1` (centres undefined), the EC50 is > 20 µM (inactive).

As to `COc1ccc(N2N=C(c3ccncc3)CC2c2ccccc2)cc1` (centres undefined), the EC50 is > 20 µM (inactive).

On to `CSc1ccc(C2=NN(c3ccccc3)C(c3ccccc3)C2)cc1` (centres undefined), for which the EC50 is > 20 µM (inactive).

Take `NS(=O)(=O)c1ccc(N2N=C(c3ccccc3)CC2c2ccccc2)cc1` (centres undefined): the EC50 is > 20 µM (inactive).

`COc1ccc(N2N=C(c3ccccn3)CC2c2ccccc2)cc1` (centres undefined): the EC50 was > 20 µM (inactive).

On to `O=C(c1ccc(N2N=C(c3ccccc3)CC2c2ccccc2)cc1)N1CCCCC1` (centres undefined), for which the EC50 was > 20 µM (inactive).

With `c1ccc(C2CC(c3ccncc3)=NN2c2ccccc2)cc1` (centres undefined), the EC50 was > 20 µM (inactive).

Consider `O=[N+]([O-])c1ccc(N2N=C(c3ccccc3)CC2c2ccccc2)cc1` (centres undefined), for which the EC50 was 0.2 µM.

For `CNC(=O)c1ccc(N2N=C(c3ccc(SC)cc3)CC2c2ccccc2)cc1` (centres undefined), the EC50 is > 20 µM (inactive).

`NS(=O)(=O)c1ccc(N2N=C(c3ccncc3)CC2c2ccccc2)cc1` (centres undefined): the EC50 is > 20 µM (inactive).

Turning to `COc1ccc(N2N=C(c3cccnc3)CC2c2ccccc2)cc1` (centres undefined), the EC50 is > 20 µM (inactive).

With `O=C(c1ccc(N2N=C(c3ccccc3)CC2c2ccccc2)cc1)N1CCOCC1` (centres undefined), the EC50 is > 20 µM (inactive).
